From ChEMBL document CHEMBL5512637, “Development of Membrane-Targeting Fluorescent 2-Phenyl-1H-phenanthro[9,10-d]imidazole-Antimicrobial Peptide Mimic Conjugates against Methicillin-Resistant Staphylococcus aureus” (J Med Chem, 2024)
≈ marks a conversion by molar mass, not a printed value.

Tests used:
[1] = system: Staphylococcus aureus; experiment: Antibacterial activity against methicillin-resistant Staphylococcus aureus clinical isolate M-3 incubated for 16 to 18 hrs CLSI based by microbroth dilution assay; type: functional; settings: time 16-18 hrs
[2] = system: Staphylococcus aureus; experiment: Antibacterial activity against methicillin-resistant Staphylococcus aureus clinical isolate M-6 incubated for 16 to 18 hrs CLSI based by microbroth dilution assay; type: functional; settings: time 16-18 hrs
[3] = system: Staphylococcus aureus; experiment: Antibacterial activity against Staphylococcus aureus ATCC 29213 incubated for 16 to 18 hrs CLSI based by microbroth dilution assay; type: functional; settings: time 16-18 hrs
[4] = system: Staphylococcus aureus; experiment: Antibacterial activity against methicillin-resistant Staphylococcus aureus clinical isolate M-7 incubated for 16 to 18 hrs CLSI based by microbroth dilution assay; type: functional; settings: time 16-18 hrs
[5] = system: Staphylococcus aureus; experiment: Antibacterial activity against methicillin-resistant Staphylococcus aureus clinical isolate M-1 incubated for 16 to 18 hrs CLSI based by microbroth dilution assay; type: functional; settings: time 16-18 hrs
[6] = system: Staphylococcus aureus; experiment: Antibacterial activity against methicillin-resistant Staphylococcus aureus clinical isolate M-5 incubated for 16 to 18 hrs CLSI based by microbroth dilution assay; type: functional; settings: time 16-18 hrs
[7] = system: Escherichia coli; experiment: Antibacterial activity against Escherichia coli ATCC 25922 incubated for 16 to 18 hrs CLSI based by microbroth dilution assay; type: functional; settings: time 16-18 hrs
[8] = Selectivity index, ratio of HC50 for sheep erythrocytes to MIC for Staphylococcus aureus ATCC 29213; type: toxicity; settings: read-out: Selectivity Index
[9] = system: Staphylococcus aureus; experiment: Antibacterial activity against methicillin-resistant Staphylococcus aureus clinical isolate M-10 incubated for 16 to 18 hrs CLSI based by microbroth dilution assay; type: functional; settings: time 16-18 hrs
[10] = system: Staphylococcus aureus; experiment: Antibacterial activity against methicillin-resistant Staphylococcus aureus clinical isolate M-2 incubated for 16 to 18 hrs CLSI based by microbroth dilution assay; type: functional; settings: time 16-18 hrs
[11] = system: Staphylococcus aureus; experiment: Antibacterial activity against methicillin-resistant Staphylococcus aureus clinical isolate M-8 incubated for 16 to 18 hrs CLSI based by microbroth dilution assay; type: functional; settings: time 16-18 hrs
[12] = Hemolytic activity in sheep erythrocytes incubated for 1 hr by absorbance based assay; type: toxicity, cell-based, Ovis aries, Erythrocyte
[13] = system: Staphylococcus aureus; experiment: Antibacterial activity against methicillin-resistant Staphylococcus aureus clinical isolate M-4 incubated for 16 to 18 hrs CLSI based by microbroth dilution assay; type: functional; settings: time 16-18 hrs
[14] = system: Staphylococcus aureus; experiment: Antibacterial activity against methicillin-resistant Staphylococcus aureus clinical isolate M-9 incubated for 16 to 18 hrs CLSI based by microbroth dilution assay; type: functional; settings: time 16-18 hrs

Compound | MIC [1] [µg/mL] | MIC [2] [µg/mL] | MIC [3] [µg/mL] | MIC [4] [µg/mL] | MIC [5] [µg/mL] | MIC [6] [µg/mL] | MIC [7] [µg/mL] | selectivity ratio [8] | MIC [9] [µg/mL] | MIC [10] [µg/mL] | MIC [11] [µg/mL] | HC50 at 1 h [12] [µg/mL] | MIC [13] [µg/mL] | MIC [14] [µg/mL]
CN(C)c1ccc(-c2nc3c4ccccc4c4ccccc4c3n2CCCC[N+](C)(C)CC(=O)N2CCSCC2)cc1.[Br-] | 16 | 16 | 16 | 16 | 16 | 16 | > 128 | > 40 | 16 | 16 | 16 | > 640 | 16 | 16
CCN(CC)C(=O)C[N+](C)(C)CCCn1c(-c2ccc(N(C)C)cc2)nc2c3ccccc3c3ccccc3c21.[Br-] | 64 | 128 | 64 | 64 | 64 | 64 | > 128 | > 10 | 64 | 64 | 128 | > 640 | 64 | 64
CCCNC(=O)C[N+](C)(C)CCCCn1c(-c2ccc(N(C)C)cc2)nc2c3ccccc3c3ccccc3c21.[Br-] | 8 | 8 | 8 | 4 | 16 | 16 | 64 | 36.3 | 16 | 8 | 4 | 290 | 8 | 8
CCCCCCNC(=O)C[N+](C)(C)CCCCCn1c(-c2ccc(N(C)C)cc2)nc2c3ccccc3c3ccccc3c21.[Br-] | 2 | 2 | 2 | 1 | 8 | 8 | 64 | 221 | 8 | 4 | 2 | 442 | 1 | 4
CC(C)N(C(=O)C[N+](C)(C)CCCCCn1c(-c2ccc(N(C)C)cc2)nc2c3ccccc3c3ccccc3c21)C(C)C.[Br-] | 4 | 4 | 4 | 4 | 4 | 4 | > 128 | 167 | 4 | 4 | 2 | 688 | 4 | 4
C[C@@H](O)[C@H]1C(=O)N2C(C(=O)O)=C(S[C@@H]3CN[C@H](C(=O)N(C)C)C3)[C@H](C)[C@H]12 [MEROPENEM] | – | – | – | – | – | – | 0.063 (≈ 0.164 µM) | – | – | – | – | – | – | –
CCCN(CCC)C(=O)C[N+](C)(C)CCCCCn1c(-c2ccc(N(C)C)cc2)nc2c3ccccc3c3ccccc3c21.[Br-] | 2 | 2 | 2 | 2 | 4 | 8 | 128 | 49.7 | 4 | 4 | 2 | 99.4 | 2 | 2
CC(C)CN(CC(C)C)C(=O)C[N+](C)(C)CCCCn1c(-c2ccc(N(C)C)cc2)nc2c3ccccc3c3ccccc3c21.[Br-] | 1 | 1 | 2 | 1 | 2 | 2 | 64 | > 79.1 | 2 | 2 | 2 | 158 | 1 | 2
CCCCCNC(=O)C[N+](C)(C)CCCCn1c(-c2ccccc2)nc2c3ccccc3c3ccccc3c21.[Br-] | 4 | 2 | 4 | 2 | 2 | 2 | 32 | – | 2 | 4 | 2 | – | 2 | 2
